Laboratory results published in US20240226067A9, “ANTI-FIBROTIC THERAPIES” (THE JOHNS HOPKINS UNIVERSITY, priority 2021, published 2024).

Legend:
[1] = tested on: CCO18CD colon fibroblasts stimulated with TGF-β; test: High throughput microscopy-based anti-fibrotic drug screen (α-SMA and collagen 1 expression); type: cell-based
Excerpt: FIG. 1 is images of cells from high throughput microscopy-based analysis of an FDA-approved drug library for potential anti-fibrotic properties.
FIGS. 3A-3C are images of cells from high throughput microscopy-based analysis of potential drugs for anti-fibrotic properties.

[2] = tested on: key fibrosis genes (ACTA2, COL1A1, COL3A1, TGFBR1) in transplanted intestinal tissue; test: Subcutaneous intestinal transplant fibrosis model, qPCR of fibrosis genes; type: in vivo; conditions: mouse; one subcutaneous injection 15 mg/kg; one week after implantation; versus oral pirfenidone 100 mg/kg three times daily
Excerpt: A 1-2 cm segment of bowel was excised from one mouse and implanted in the subcutaneous space on the neck of another mouse of the same genetic background. […] One week after tissue implantation and initiation of treatment, the segment of transplanted intestine tissue was excised to assess expression of key genes involved in fibrosis (α-SMA, ACTA2; collagen type 1, COL1A1; collagen type 3, COL3A1; TGF-β receptor 1, TGFBR1) by qPCR.

[3] = mouse, in vivo, sc, 50 mg/kg
[4] = tested on: intestinal fibroblast cells; test: Cell survival in the microscopy-based screen; conditions: at effective concentrations

Structure (SMILES) | concentration causing reduction in α-SMA and collagen production ([1]; TGF-β stimulated colon fibroblasts) [mM] | concentration level at which induced expression of α-SMA and/or collagen was reduced (in words) ([1]; TGF-β stimulated intestinal fibroblasts) | repression of fibrosis genes (ACTA2, COL1A1, COL3A1, TGFBR1) [2] | mortality [3] | impact on cell survival [4]
Cc1ccc(=O)n(-c2ccccc2)c1 [pirfenidone] | 4 | millimolar concentrations |  |  | 
Clc1ccc(CSC(Cn2ccnc2)c2ccc(Cl)cc2Cl)cc1 (centres unmarked) [sulconazole, 1-[2-[(4-chlorophenyl)methylsulfanyl]-2-(2,4-dichlorophenyl)ethyl]imidazole] |  |  | significantly more effective than pirfenidone | death of mice | minimal impact on cell survival
